Article PMC9145196, “The Antileukemic and Anti-Prostatic Effect of Aeroplysinin-1 Is Mediated through ROS-Induced Apoptosis via NOX Activation and Inhibition of HIF-1a Activity” (Life, 2022)

Key:
topo IIα = biological target: T1, topo IIα (Homo sapiens, UniProt P11388); experiment: cell-free topo II relaxation assay of supercoiled pHOT1 plasmid DNA; assay type: biochemical
T1 construct: gene TOP2A

Hsp90 = biological target: T2, Hsp90 (Homo sapiens, UniProt P07900); experiment: protein thermal shift assay (Sypro Orange), Tm increase at […] Apl-1; assay type: binding
T2 construct: gene HSP90AA1; HSP90 recombinant protein

T1 sequence (P11388 whole entry): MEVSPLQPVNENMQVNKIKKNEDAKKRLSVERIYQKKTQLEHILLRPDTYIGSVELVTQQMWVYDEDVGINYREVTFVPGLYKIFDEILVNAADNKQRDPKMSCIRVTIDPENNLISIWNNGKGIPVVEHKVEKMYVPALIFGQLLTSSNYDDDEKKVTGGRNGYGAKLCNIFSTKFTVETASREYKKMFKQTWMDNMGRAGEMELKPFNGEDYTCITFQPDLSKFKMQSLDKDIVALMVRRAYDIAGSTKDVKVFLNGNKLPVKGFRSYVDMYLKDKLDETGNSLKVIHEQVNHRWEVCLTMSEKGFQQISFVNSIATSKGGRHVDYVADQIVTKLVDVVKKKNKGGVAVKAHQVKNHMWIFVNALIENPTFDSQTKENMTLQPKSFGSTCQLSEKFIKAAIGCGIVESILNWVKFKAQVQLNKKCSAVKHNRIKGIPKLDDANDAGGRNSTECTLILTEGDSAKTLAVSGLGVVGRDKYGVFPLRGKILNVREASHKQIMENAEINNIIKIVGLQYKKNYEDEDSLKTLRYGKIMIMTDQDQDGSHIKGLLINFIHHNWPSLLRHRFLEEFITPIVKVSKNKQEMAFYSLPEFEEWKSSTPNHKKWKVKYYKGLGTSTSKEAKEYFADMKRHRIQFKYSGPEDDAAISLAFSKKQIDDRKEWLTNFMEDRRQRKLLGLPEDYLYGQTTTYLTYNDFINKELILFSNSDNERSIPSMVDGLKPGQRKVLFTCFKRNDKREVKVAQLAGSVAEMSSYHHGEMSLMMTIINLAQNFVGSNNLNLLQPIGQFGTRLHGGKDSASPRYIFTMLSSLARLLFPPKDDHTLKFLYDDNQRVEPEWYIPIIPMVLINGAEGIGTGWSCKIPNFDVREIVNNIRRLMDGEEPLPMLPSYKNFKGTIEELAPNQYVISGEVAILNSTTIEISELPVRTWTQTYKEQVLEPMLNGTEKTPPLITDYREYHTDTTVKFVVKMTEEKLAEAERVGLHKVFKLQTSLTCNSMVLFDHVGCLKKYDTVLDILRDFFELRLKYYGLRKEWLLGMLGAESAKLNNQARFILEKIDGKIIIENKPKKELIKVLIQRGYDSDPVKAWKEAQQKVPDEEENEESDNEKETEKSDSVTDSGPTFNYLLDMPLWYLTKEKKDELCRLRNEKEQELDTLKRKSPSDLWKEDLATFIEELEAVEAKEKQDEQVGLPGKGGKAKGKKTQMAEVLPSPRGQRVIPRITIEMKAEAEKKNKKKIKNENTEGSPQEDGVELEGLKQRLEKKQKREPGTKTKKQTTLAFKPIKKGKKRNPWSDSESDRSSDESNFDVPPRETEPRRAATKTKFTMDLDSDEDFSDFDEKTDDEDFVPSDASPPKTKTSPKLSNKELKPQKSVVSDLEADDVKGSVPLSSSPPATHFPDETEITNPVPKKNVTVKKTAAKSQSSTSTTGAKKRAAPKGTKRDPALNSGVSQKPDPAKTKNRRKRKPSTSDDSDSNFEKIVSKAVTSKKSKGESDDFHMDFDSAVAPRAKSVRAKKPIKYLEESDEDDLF

COC1=C(Br)[C@H](O)[C@](O)(CC#N)C=C1Br [Apl-1, aeroplysinin-1]
IC50 (topo IIα): 1.37 µM | ΔTm at 2950 µM (Hsp90): 46.4 ± 7.4 °C
